Results as given in patent US20240292836A1, “AGENTS FOR REPELLING, KNOCKING DOWN, AND/OR KILLING BLOOD-SUCKING ARTHROPODS AND USES THEREOF” (The United States of America, as represented by the …, priority 2023, published 2024).

Columns and labels:
[1] = system: female Aedes aegypti adults; assay: Arm-in-cage cloth-patch in vivo assay (topical repellency); conditions: for Minimum Effective Dose (MED): Mean ± SEM, lowest dosage with five or fewer bites through repellent-treated cloth in 1-minute exposure, at least three volunteers; for topical repellency (in words): initial screening dose of 0.187 mg/cm^2
Source text: Arm-in-Cage Test Cloth-Patch in vivo Assay Pyrethroid-susceptible yellow fever mosquitoes Ae. aegypti (Orlando strain) were reared in the United States Department of Agriculture Mosquito and Fly Research Unit in Gainesville, FL under standard protocols. Three to seven-day-old, starved female mosquitoes were collected using a “draw box” (Posey, K. and Schreck, C. E, 1981, “An airflow apparatus for selecting female mosquitoes for use in repellent and attraction studies” Mosquito News 41: 566-568; US. Department of Agriculture, 1977, Repellent activity of compounds submitted by Walter Reed Army Institute of Research. Part 1. Protection time and minimum effective dosage against Aedes aegypti mosquitoes. Tech. Bull. No. 1549) and were placed in cages at an approximate density 200 mosquitoes/cage. Repellency was determined according to a standard protocol (Bernier, U. R., et al, 2022. “Evaluation and application of repellent-treated uniform/clothing and textiles against vector mosquitoes,” In Advances in Arthropod Repellents (pp. 69-94). Academic Press) and reported as the minimum effective dosage (MED). […] A nylon leg stocking was placed over the arm to prevent direct contact of the repellent-treated cloth patch with the skin. […]. Cloth was treated by placing a rolled bandage (50 cm^2) into each vial containing 1 mL of solution and allowing the patch to absorb the solution completely. The cloth was taped over a 4 by 9-cm opening cut into a vinyl plastic sheet that was draped around the volunteers' arms and taped in place. The cloth was air-dried approximately 15 min before conducting each test. The work reported here is an average of the MED for at least three volunteers. Each volunteer covered his or her arm with a nylon stocking to avoid contact between the skin and the treated cloth and wore a rubber glove to prevent mosquito bites on the hand.
. The minimum effective dose (MED) was determined for each repellent and subject, defined as the lowest concentration that prevents biting). MEDs from each subject were pooled and reported as the average among all replicates/subjects with SEM. A minimum of 3 replicates were performed on at least three human subjects. Written informed consent was obtained for all human subjects used in this study in accordance with IRB protocol #20193320, as approved by the WCG™ IRB.
Statistical Analyses: Student's T-test was used to compare the means between tested compound and DEET and Icaridin in the arm-in-cage in vivo assay and neurophysiological study.

[2] = system: female Aedes aegypti adults; assay: High-throughput in vitro screening assay, spatial repellency; format: in vivo; conditions: for RD50 (30 min), half-repellent dose / RD50 (60 min), half-repellent dose: dose per filter paper surface area, 95% CI; for spatial repellency (in words): highest-tested dose of 100 μg/cm^2; for 30-minute RD50 compared with that of DEET: 30 minutes, α = 0.05
Source text: A high-throughput screening method for evaluating spatial repellency and vapor toxicity, described by Jiang S., et al. (2019, “High-Throughput Screening Method for Evaluating Spatial Repellency and Vapour Toxicity to Mosquitoes,” Med. Vet. Entomol. 33: 388-396), was used for this study. As shown in FIG. 2 of Jiang S., et al., assay tubes were constructed by covering 12.5 cm glass tubes on one side with netting secured by a rubber band. The tubes were used in horizontal orientation. Adult mosquitos 2-7 days old were anesthetized on ice for approximately 5 minutes and 16 females were transferred to each tube. The other end of the tube was then closed with netting and a rubber band.
The conical ends of 50 mL centrifuge tubes (Eppendorf, Enfield, Connecticut, USA) were cut at approximately the 10 mL mark to create the end caps for the assay tubes. […] For repellency tests, filter papers for the “untreated” side of the assay tube received pure acetone, whereas filter papers for the “treated” side received acetone solution containing a dissolved compound of interest. For knockdown tests, both filter papers were treated with acetone solution containing one or more compounds of interest. Acetone on both filter papers served as negative controls.
For repellency assays, filter papers were given 10 minutes of evaporation time before being placed into the end caps with forceps (Jiang S., et al. 2019, Supra). For knockdown assays, filter papers were given 5 minutes of evaporation time before being placed into the end caps. […] Assay tubes were capped such that the cap securely overlapped the glass but approximately 5 mm of space was left between the netting and the filter paper so that the mosquitos could not contact the filter paper.
Assay tubes were placed on a white polystyrene platform with wooden sticks glued flatly across it to prevent the tubes from rolling. A straight black line was drawn down the center of the platform and assay tubes were centered on the line at the beginning of the tests. In repellency assays, data were collected at 15, 30, and 60 minutes after the end caps were placed on the assay tubes. Assay tubes were not disturbed for the entire 60 minutes. At each time point, the number of mosquitos that remained on the treated side was visually assessed and recorded. The treated side was alternated with each set of tests. For repellency tests, DEET at a dose of 100 μg/cm^2 served as the positive control.
For the high-throughput in vitro screening assays, analyses were conducted with R version 4.2.2 statistical software (R Core Team, 2022, “R: a language and environment for statistical computing. R foundation for statistical computing,” Vienna, Austria). Concentrations were calculated in terms of filter paper surface area (μg/cm^2) for repellency assays and in terms of assay tube volume (μg/cm^3) for knockdown assays.
Half-repellent (RD50), half-knockdown (KD50), and half-lethal (LD50) doses were calculated from dose-response curves (DRCs) obtained by four-parameter log-logistic equation models generated using the drc package (Dose Response Curve Analyses Software; Ritz C. et al., 2015, “Dose-response analysis using R,” PLOS ONE 10: e0146021). For repellency test analysis, the upper and lower asymptotes for the proportion of mosquitos remaining on the treated side were fixed at 0.5 and 0, respectively. For KD and mortality test analysis, the upper and lower asymptotes for the proportion of mosquitos knocked down or killed were fixed at 1.0 and 0, respectively. To determine whether RD50, KD50, or LD50 values differed across compounds at each timepoint, a joint model assuming different values for each compound and a null model that assumed a single value for all compounds were compared with a likelihood ratio test.

With `COC(=O)c1cccc(C)c1` [M3MB, methyl 3-methylbenzoate] the “Minimum Effective Dose (MED)” value [1] was 0.219 mg/cm^2, the “topical repellency (in words)” value [1] was “demonstrated repellency at doses lower than 0.187 mg/cm^2 on at least one test subject” and the “RD50 (30 min), half-repellent dose” value [2] was over 100 μg/cm^2. The “RD50 (60 min), half-repellent dose” value [2] was over 100 μg/cm^2 and the “spatial repellency (in words)” value [2] was “did not show spatial repellencies”.
With `COC(=O)c1cccc(OC)c1` [M3MOB, methyl 3-methoxybenzoate] the “Minimum Effective Dose (MED)” value [1] was 0.266 mg/cm^2, the “topical repellency (in words)” value [1] was “demonstrated repellency at doses lower than 0.187 mg/cm^2 on at least one test subject” and the “30-minute RD50 compared with that of DEET” value [2] was “not significantly different from that of DEET”.
With `COC(=O)c1ccc(N)cc1` [M4AB, methyl 4-aminobenzoate] the “Minimum Effective Dose (MED)” value [1] was over 0.187 mg/cm^2, the “topical repellency (in words)” value [1] was “did not show any topical repellencies” and the “RD50 (30 min), half-repellent dose” value [2] was over 100 μg/cm^2. For the same compound, the “RD50 (60 min), half-repellent dose” value [2] was over 100 μg/cm^2 and the “spatial repellency (in words)” value [2] was “did not show spatial repellencies”.
With `COC(=O)c1ccc(Cl)cc1` [M4CB, methyl 4-chlorobenzoate] the “Minimum Effective Dose (MED)” value [1] was over 0.187 mg/cm^2, the “topical repellency (in words)” value [1] was “did not show any topical repellencies” and the “RD50 (30 min), half-repellent dose” value [2] was over 100 μg/cm^2. For the same compound, the “RD50 (60 min), half-repellent dose” value [2] was over 100 μg/cm^2 and the “spatial repellency (in words)” value [2] was “did not show spatial repellencies”.
In the case of `COC(=O)c1ccc(O)cc1` [M4HB, methyl 4-hyhroxylbenzoate], the “Minimum Effective Dose (MED)” value [1] is reported as over 0.187 mg/cm^2, the “topical repellency (in words)” value [1] is reported as “did not show any topical repellencies” and the “RD50 (30 min), half-repellent dose” value [2] is reported as over 100 μg/cm^2. The “RD50 (60 min), half-repellent dose” value [2] was over 100 μg/cm^2 and the “spatial repellency (in words)” value [2] was “did not show spatial repellencies”.
For `COC(=O)c1ccc(C)cc1` [M4MB, methyl 4-methylbenzoate], the “Minimum Effective Dose (MED)” value [1] was over 0.187 mg/cm^2, the “topical repellency (in words)” value [1] was “did not show any topical repellencies” and the “RD50 (30 min), half-repellent dose” value [2] was over 100 μg/cm^2. For the same compound, the “RD50 (60 min), half-repellent dose” value [2] was over 100 μg/cm^2 and the “spatial repellency (in words)” value [2] was “did not show spatial repellencies”.
In the case of `COC(=O)c1ccc(OC)cc1` [M4MOB, methyl 4-methoxybenzoate], the “Minimum Effective Dose (MED)” value [1] is reported as over 0.187 mg/cm^2, the “topical repellency (in words)” value [1] is reported as “did not show any topical repellencies” and the “RD50 (30 min), half-repellent dose” value [2] is reported as over 100 μg/cm^2. For the same compound, the “RD50 (60 min), half-repellent dose” value [2] was over 100 μg/cm^2 and the “spatial repellency (in words)” value [2] was “did not show spatial repellencies”.
With `COC(=O)c1ccc(C(F)(F)F)cc1` [M4tFMB, methyl 4-(trifluoromethyl)benzoate] the “Minimum Effective Dose (MED)” value [1] was over 0.187 mg/cm^2, the “topical repellency (in words)” value [1] was “did not show any topical repellencies” and the “RD50 (30 min), half-repellent dose” value [2] was over 100 μg/cm^2. For the same compound, the “RD50 (60 min), half-repellent dose” value [2] was over 100 μg/cm^2 and the “spatial repellency (in words)” value [2] was “did not show spatial repellencies”.
For `COC(=O)c1ccccc1N` [MA, methyl anthranilate], the “Minimum Effective Dose (MED)” value [1] was 0.027 mg/cm^2, the “RD50 (30 min), half-repellent dose” value [2] was 11.84 μg/cm^2 and the “30-minute RD50 compared with that of DEET” value [2] was “significantly lower than that of DEET”.
In the case of `COC(=O)c1ccccc1NC(C)=O` [MAcA, methyl N-acetylanthranilate], the “Minimum Effective Dose (MED)” value [1] is reported as 0.101 mg/cm^2, the “topical repellency (in words)” value [1] is reported as “demonstrated repellency at doses lower than 0.187 mg/cm^2 on at least one test subject” and the “RD50 (30 min), half-repellent dose” value [2] is reported as over 100 μg/cm^2. For the same compound, the “RD50 (60 min), half-repellent dose” value [2] was over 100 μg/cm^2 and the “spatial repellency (in words)” value [2] was “did not show spatial repellencies”.
With `COC(=O)c1ccccc1` [MB, Methyl benzoate] the “Minimum Effective Dose (MED)” value [1] was over 0.187 mg/cm^2, the “topical repellency (in words)” value [1] was “did not show any topical repellencies” and the “RD50 (30 min), half-repellent dose” value [2] was over 100 μg/cm^2. The “RD50 (60 min), half-repellent dose” value [2] was over 100 μg/cm^2 and the “spatial repellency (in words)” value [2] was “did not show spatial repellencies”.
For `O=C(Oc1ccccc1)c1ccccc1` [PhB, phenyl benzoate], the “Minimum Effective Dose (MED)” value [1] was over 0.187 mg/cm^2, the “topical repellency (in words)” value [1] was “did not show any topical repellencies” and the “RD50 (30 min), half-repellent dose” value [2] was over 100 μg/cm^2. The “RD50 (60 min), half-repellent dose” value [2] was over 100 μg/cm^2 and the “spatial repellency (in words)” value [2] was “did not show spatial repellencies”.
`O=C(OCCc1ccccc1)c1ccccc1` [PhEB, phenethyl benzoate] was tested, and the “Minimum Effective Dose (MED)” value [1] was over 0.187 mg/cm^2, the “topical repellency (in words)” value [1] was “did not show any topical repellencies” and the “RD50 (30 min), half-repellent dose” value [2] was over 100 μg/cm^2. For the same compound, the “RD50 (60 min), half-repellent dose” value [2] was over 100 μg/cm^2 and the “spatial repellency (in words)” value [2] was “did not show spatial repellencies”.
`C=COC(=O)c1ccccc1` [VB, vinyl benzoate] was tested, and the “Minimum Effective Dose (MED)” value [1] was over 0.187 mg/cm^2, the “topical repellency (in words)” value [1] was “did not show any topical repellencies” and the “RD50 (30 min), half-repellent dose” value [2] was over 100 μg/cm^2. The “RD50 (60 min), half-repellent dose” value [2] was over 100 μg/cm^2 and the “spatial repellency (in words)” value [2] was “did not show spatial repellencies”.
With `CC(C)OC(=O)c1ccccc1` [iPrB, iso-propyl benzoate] the “Minimum Effective Dose (MED)” value [1] was over 0.187 mg/cm^2, the “topical repellency (in words)” value [1] was “did not show any topical repellencies” and the “RD50 (30 min), half-repellent dose” value [2] was over 100 μg/cm^2. For the same compound, the “RD50 (60 min), half-repellent dose” value [2] was over 100 μg/cm^2 and the “spatial repellency (in words)” value [2] was “did not show spatial repellencies”.
For `CCCCOC(=O)c1ccc(O)cc1` [nB4HB, n-butyl 4-hydroxybenzoate], the “Minimum Effective Dose (MED)” value [1] was over 0.187 mg/cm^2, the “topical repellency (in words)” value [1] was “did not show any topical repellencies” and the “RD50 (30 min), half-repellent dose” value [2] was over 100 μg/cm^2. For the same compound, the “RD50 (60 min), half-repellent dose” value [2] was over 100 μg/cm^2 and the “spatial repellency (in words)” value [2] was “did not show spatial repellencies”.
For `CCCCOC(=O)c1ccccc1NC=O` [nBFA, n-Butyl N-formylanthranilate], the “Minimum Effective Dose (MED)” value [1] was 0.0075 mg/cm^2, the “MED, times lower than the initial screening dose” value ([1]; relative to initial screening dose of 0.187 mg/cm^2) was 25 times and the “RD50 (30 min), half-repellent dose” value [2] was over 100 μg/cm^2. For the same compound, the “RD50 (60 min), half-repellent dose” value [2] was over 100 μg/cm^2 and the “spatial repellency (in words)” value [2] was “did not show any spatial repellencies”.
With `CCCOC(=O)c1ccc(O)cc1` [nPr4HB, n-propyl 4-hydroxylbenzoate] the “Minimum Effective Dose (MED)” value [1] was over 0.187 mg/cm^2, the “topical repellency (in words)” value [1] was “did not show any topical repellencies” and the “RD50 (30 min), half-repellent dose” value [2] was over 100 μg/cm^2. For the same compound, the “RD50 (60 min), half-repellent dose” value [2] was over 100 μg/cm^2 and the “spatial repellency (in words)” value [2] was “did not show spatial repellencies”.
